According to patent US20180346446A1, “IRE1 SMALL MOLECULE INHIBITORS” (QUENTIS THERAPEUTICS, INC., priority 2017, published 2018):

Experiments:
IRE1a [1] = biological target: T1, IRE1a (Homo sapiens, UniProt O75460); assay: In vitro FRET assay (XBP1 RNA probe cleavage by IRE1a); type: biochemical; parameters: purchased SignalChem; details: 2 nM IRE1a protein
Protocol: In vitro FRET assay was performed to evaluate the ability of select compounds to inhibit IRE1, the results of which are summarized in Table 3. To perform the in vitro FRET assay, 1× complete assay buffer (CAB; […], 50 mM sodium citrate pH 7.15, ImM magnesium acetate, 0.02% tween 20) was used to dilute SignalChem IRE1a protein to a final concentration of 2 nM. Selected compounds were serially diluted with DMSO in a non-binding black 384-well plate for a total of 15 ul in each well. 2 ul of the serially diluted compound or DMSO control were then added to new wells containing 98 ul of 1×CAB, for a total volume of 100 ul, 10 ul of which were then transferred to wells of a new plate. 5 ul of the diluted IRE1a was then added to each well. 5 ul of a […] XBP1 RNA probe was then added to each well. Fluorescence was then read over 30 minutes in kinetic mode (485/515 nm).
Two RNA probes were used, XBP1 wildtype (SEQ ID NO: 2) which is able to be spliced by active IRE1a or XBP1 mutant (SEQ ID NO: 3) which is unable to be spliced. Each probe contained a 5′ 6-FAM modification and a 3′ IOWA Black FQ modification. […]

IRE1a [2] = biological target: T1, IRE1a; assay: IRE1a Endoribonuclease Nanoluciferase Assay (XBP1 luciferase reporter in 293T cells); type: cell-based; details: 293T cells transfected with XBP1 luciferase reporter, ER stressors +/- inhibitors
Protocol: Compounds disclosed herein were assessed for disruption of IRE1 signaling using a IRE1a Endoribonuclease Nanoluciferase Assay. Briefly, 2.5×10^6 293T cells were seeded in a 10 cm^2 tissue culture plate. About 24 hours later, the cells were transfected with Effectene. In a 15 mL Tube, the following was added: 2 ug XBP1 luciferase reporter plasmid (PGK-Luc2-P2A-XBP1u-Nanoluciferase-PEST); 300 ul EC buffer; and 16 ul Enhancer, followed by incubation at room temp for 5 minutes. Next, 60 ul Effectene (Qiagen 301427) was added, followed by incubation at room temperature for 10 minutes. 2.6 mL cDMEM media was added. Old media was aspirated from the cells, followed by addition of 7 mL fresh media. Full transfection mixture was added dropwise to cells. Cells were incubated for 6 hours, followed by trypsinization, centrifugation and resuspension in 11 mL media. 100 uL of cells were plated per a well in a 96 well plate. A day later, ER stressors of choice +/− inhibitors were added. To harvest, media was aspirated from cells completely, then 50 uL 1× passive lysis buffer (Promega: E1941) was added per well and put on shaker (300 rpm) for 30 minutes at room temperature. Cells were centrifuged, and 15 uL sample per well was added to a new, opaque white 384 well plate (Corning 3570). 15 uL OneGlo (nanoluciferase kit, Promega N1630) was added. Plates were spun down, placed on shaker (300 rpm) for 10 minutes. Plates were read on luminometer, 1000 ms integration time per well. 15 uL Stop and Glo (nanoluciferase kit) was added. Plates were spun down, placed on shaker (300 rpm) for 10 minutes. Plates were read on luminometer, 1000 ms second integration time per well. Recordings are provided below in Table 4.

T1 sequence (O75460 19-977): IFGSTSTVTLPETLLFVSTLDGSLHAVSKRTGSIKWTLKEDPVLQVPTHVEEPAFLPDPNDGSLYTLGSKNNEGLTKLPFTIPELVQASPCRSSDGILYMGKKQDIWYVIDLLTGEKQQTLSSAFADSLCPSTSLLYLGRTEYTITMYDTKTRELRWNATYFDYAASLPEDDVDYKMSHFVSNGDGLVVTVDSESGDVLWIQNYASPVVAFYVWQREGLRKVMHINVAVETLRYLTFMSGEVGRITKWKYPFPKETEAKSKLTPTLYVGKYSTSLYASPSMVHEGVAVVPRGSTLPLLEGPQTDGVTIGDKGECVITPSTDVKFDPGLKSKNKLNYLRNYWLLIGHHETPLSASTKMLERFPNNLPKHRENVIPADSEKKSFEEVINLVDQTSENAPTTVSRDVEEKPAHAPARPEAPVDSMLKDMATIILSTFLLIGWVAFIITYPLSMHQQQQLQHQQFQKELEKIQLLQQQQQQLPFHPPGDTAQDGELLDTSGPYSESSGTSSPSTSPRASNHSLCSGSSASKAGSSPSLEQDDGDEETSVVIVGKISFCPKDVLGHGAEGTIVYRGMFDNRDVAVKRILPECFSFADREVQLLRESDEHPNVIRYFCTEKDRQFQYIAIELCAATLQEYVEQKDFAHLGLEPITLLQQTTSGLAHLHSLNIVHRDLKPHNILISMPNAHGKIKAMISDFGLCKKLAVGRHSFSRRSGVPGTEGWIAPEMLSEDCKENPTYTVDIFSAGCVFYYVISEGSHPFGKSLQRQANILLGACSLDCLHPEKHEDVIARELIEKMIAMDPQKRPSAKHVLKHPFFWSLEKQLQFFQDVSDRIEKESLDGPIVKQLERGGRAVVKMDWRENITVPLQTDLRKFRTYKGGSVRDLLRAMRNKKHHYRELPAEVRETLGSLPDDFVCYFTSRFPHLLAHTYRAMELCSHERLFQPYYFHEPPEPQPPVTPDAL

SMILES	IC50 (IRE1a [1])	EC50 (IRE1a [2])
CCc1cc(-c2ccc(NS(=O)(=O)c3ccccc3C)nc2C)cc2cnc(N[C@H]3CC[C@H](N)CC3)nc12 [112; Formic Acid]	≤ 5 nM	5 to 50 nM
Cc1cc2nc(N[C@H]3CC[C@H](N)CC3)ncc2cc1-c1ccc(NS(=O)(=O)c2ccccc2Cl)nc1C [106; Formic Acid]	≤ 5 nM	–
CCc1cc(-c2ccc(NS(=O)(=O)c3cc(Cl)ccc3Cl)cc2C)cc2cnc(N[C@H]3CC[C@H](N)CC3)nc12 [Compound 9, N-(4-(2-(((1r,4r)-4-aminocyclohexyl)amino)-8-ethylquinazolin-6-yl)-3-methylphenyl)-2,5-dichlorobenzenesulfonamide]	≤ 5 nM	–
CCc1cc(-n2cc(NS(=O)(=O)c3ccccc3Cl)cn2)cc2cnc(N[C@H]3CC[C@H](N)CC3)nc12 [43; Formic Acid]	≤ 5 nM	–
CCc1nc(NS(=O)(=O)c2ccccc2Cl)ccc1-c1cc(CC)c2nc(NC34CCC(N(C)C)(CC3)CC4)ncc2c1 [136; Formic Acid]	≤ 5 nM	≤ 5 nM
CCc1cc(-c2cc(F)c(NS(=O)(=O)c3ccccc3Cl)c(F)c2)cc2cnc(N[C@H]3CC[C@H](N)CC3)nc12 [63; Formic Acid]	≤ 5 nM	–
CCc1cc(-c2cc(OC)c(NS(=O)(=O)c3ccccc3Cl)nn2)cc2cnc(N[C@H]3CC[C@H](N)CC3)nc12 [66; Formic Acid]	≤ 5 nM	50 to 100 nM
CCc1cc(-c2ccc(NS(=O)(=O)c3ccccc3OC(F)(F)F)cc2C)cc2cnc(N[C@H]3CC[C@H](N)CC3)nc12 [Compound 8, N-(4-(2-(((1r,4r)-4-aminocyclohexyl)amino)-8-ethylquinazolin-6-yl)-3-methylphenyl)-2-(trifluoromethoxy)benzenesulfonamide]	5 to 50 nM	–
CCc1cc(NS(=O)(=O)c2ccccc2Cl)nnc1-c1cc(CC)c2nc(N[C@H]3CC[C@H](N)CC3)ncc2c1 [96; Formic Acid]	≤ 5 nM	–
N[C@H]1CC[C@H](Nc2ncc3cc(-c4nnc(NS(=O)(=O)c5ccccc5Cl)s4)ccc3n2)CC1 [89; Formic Acid]	≤ 5 nM	> 100 nM
COc1cc(-c2ccc(NS(=O)(=O)c3ccccc3Cl)cc2C)cc2cnc(N[C@H]3CC[C@H](N)CC3)nc12 [36; Formic Acid]	≤ 5 nM	–
COc1cc(-c2cc(NS(=O)(=O)c3ccccc3Cl)nn2C)cc2cnc(N[C@H]3CC[C@H](N)CC3)nc12 [45; Formic Acid]	50 to 100 nM	–
CCc1cc(-c2ccc(NS(=O)(=O)c3ccccc3Cl)c(F)c2)cc2cnc(N[C@@H]3CC[C@@H](N)[C@H](C)C3)nc12 [74; Formic Acid]	≤ 5 nM	≤ 5 nM
COc1nc(NS(=O)(=O)c2ccccc2Cl)c(F)cc1-c1cc(C)c2nc(N[C@H]3CC[C@@H](N)CC3)ncc2c1 [146; Formic Acid]	≤ 5 nM	–
COc1nc(NS(=O)(=O)c2ccccc2Cl)ccc1-c1ccc2nc(N[C@H]3CC[C@H](N)CC3)ncc2c1C [114; Formic Acid]	5 to 50 nM	–
CCc1cc(-c2ccc(N(C)S(=O)(=O)c3ccccc3Cl)cc2C)cc2cnc(N[C@H]3CC[C@H](N)CC3)nc12 [31; Formic Acid]	> 100 nM	–
CCCc1cc(-c2cc(NS(=O)(=O)c3ccccc3Cl)nn2C)cc2cnc(N[C@H]3CC[C@H](N)CC3)nc12 [47; Formic Acid]	≤ 5 nM	5 to 50 nM
N[C@H]1CC[C@H](Nc2ncc3cc(-c4cnc(NS(=O)(=O)c5ccccc5Cl)c(F)c4)ccc3n2)CC1 [54; Formic Acid]	≤ 5 nM	5 to 50 nM
CC(C)c1cc(-c2cc(NS(=O)(=O)c3ccccc3Cl)nn2C)cc2cnc(N[C@H]3CC[C@H](N)CC3)nc12 [40; Formic Acid]	≤ 5 nM	–
CCc1cc(-c2ccc(NS(=O)(=O)c3ccccc3OC)nc2OC)cc2cnc(N[C@H]3CC[C@H](N)CC3)nc12 [109; Formic Acid]	≤ 5 nM	≤ 5 nM
CCc1cc(-c2ccc(NS(=O)(=O)c3ccccc3C)nc2OC)cc2cnc(N[C@H]3CC[C@H](N)CC3)nc12 [103; Formic Acid]	≤ 5 nM	≤ 5 nM
Cc1nc(NS(=O)(=O)c2ccccc2Cl)ncc1-c1ccc2nc(N[C@H]3CC[C@H](N)CC3)ncc2c1 [68; Formic Acid]	≤ 5 nM	50 to 100 nM

SMILES	IC50 (IRE1a [1])	EC50 (IRE1a [2])
CCc1cc(-c2ccc(NS(=O)(=O)c3ccccc3Cl)c(F)c2)cc2cnc(N[C@H]3CC[C@H](NC(=O)[C@@H](N)C(C)C)CC3)nc12 [58; Formic Acid]	5 to 50 nM	≤ 5 nM
CCc1cc(-c2ccc(NS(=O)(=O)c3ccccc3F)cc2C)cc2cnc(N[C@H]3CC[C@H](N)CC3)nc12 [Compound 10, N-(4-(2-(((1r,4r)-4-aminocyclohexyl)amino)-8-ethylquinazolin-6-yl)-3-methylphenyl)-2-fluorobenzenesulfonamide]	≤ 5 nM	–
COc1nc(NS(=O)(=O)c2ccccc2Cl)ccc1-c1cc2cnc(N[C@H]3CC[C@H](N)CC3)nc2cc1C [104; Formic Acid]	≤ 5 nM	50 to 100 nM
CCc1cc(-c2ccc(NS(=O)(=O)c3ccccc3)cc2C)cc2cnc(N[C@H]3CC[C@H](N)CC3)nc12 [15; Formic Acid]	> 100 nM	–
CCc1cc(-c2ccc(NS(=O)(=O)c3ccc(Cl)cc3)cc2C)cc2cnc(N[C@H]3CC[C@H](N)CC3)nc12 [Compound 12]	> 100 nM	–
CCc1cc(-c2cnc(NS(=O)(=O)c3ccccc3Cl)s2)cc2cnc(N[C@H]3CC[C@H](N)CC3)nc12 [41; Formic Acid]	≤ 5 nM	–
CCc1cc(-c2ccc(NS(=O)(=O)c3ccccc3Cl)nc2OC)cc2cnc(NC3CCC(C)(N(C)C)CC3)nc12 (stereo not shown) [143; Formic Acid]	5 to 50 nM	–
CCc1cc(-c2sc(NS(=O)(=O)c3ccccc3Cl)nc2C)cc2cnc(N[C@H]3CC[C@H](N)CC3)nc12 [38; Formic Acid]	≤ 5 nM	–
CCc1cc(-c2ccc(NS(=O)(=O)c3ccccc3C(F)(F)F)cc2C)cc2cnc(N[C@H]3CC[C@H](N)CC3)nc12 [Compound 7, N-(4-(2-(((1r,4r)-4-aminocyclohexyl)amino)-8-ethylquinazolin-6-yl)-3-methylphenyl)-2-(trifluoromethyl)benzenesulfonamide]	5 to 50 nM	–
Cc1cc(N(C)S(=O)(=O)c2ccccc2Cl)ccc1-c1cc(O)c2nc(N[C@H]3CC[C@H](N)CC3)ncc2c1 [30; Formic Acid]	50 to 100 nM	–
CCc1cc(-c2ccc(NS(=O)(=O)c3ccccc3Cl)cc2C(F)(F)F)cc2cnc(N[C@H]3CC[C@H](N)CC3)nc12 [14; Formic Acid]	> 100 nM	–
CCc1cc(-c2ccc(NS(=O)(=O)c3ccccc3Cl)nc2OC)cc2cnc(N[C@H]3CC[C@@H](N)CC3)nc12 [140; Formic Acid]	≤ 5 nM	–
CCc1cc(-c2ccc(NS(=O)(=O)c3ccccc3Cl)nc2OC)cc2cnc(N[C@H]3CC[C@H](O)CC3)nc12 [101; Formic Acid]	5 to 50 nM	–
N[C@H]1CC[C@H](Nc2ncc3cc(-c4ccc(NS(=O)(=O)c5ccccc5Cl)c(F)c4)ccc3n2)CC1 [50; Formic Acid]	≤ 5 nM	–
CCc1cc(-c2ccc(NS(=O)(=O)c3ccccc3OC)cc2C)cc2cnc(N[C@H]3CC[C@H](N)CC3)nc12 [Compound 13]	> 100 nM	–
CCc1cc(-c2ccc(NS(=O)(=O)c3ccccc3Cl)cc2Cl)cc2cnc(N[C@H]3CC[C@H](N)CC3)nc12 [17; Formic Acid]	> 100 nM	–
N[C@H]1CC[C@H](Nc2ncc3cc(-c4ccc(NS(=O)(=O)c5ccccc5Cl)nn4)ccc3n2)CC1 [49; Formic Acid]	≤ 5 nM	–
CCc1cc(-c2cnc(NS(=O)(=O)c3ccccc3Cl)nc2)cc2cnc(N[C@H]3CC[C@H](N)CC3)nc12 [39; Formic Acid]	≤ 5 nM	–
CCc1nc(NS(=O)(=O)c2ccccc2Cl)ccc1-c1cc2cnc(N[C@H]3CC[C@H](N)CC3)nc2cc1C [105; Formic Acid]	≤ 5 nM	–
CCc1cc(-c2cc(F)c(NS(=O)(=O)c3ccccc3Cl)nc2OC)cc2cnc(N[C@H]3CC[C@@](C)(N(C)C)CC3)nc12 [144; Formic Acid]	50 to 100 nM	–
CCc1cc(-c2cc(F)c(NS(=O)(=O)c3ccccc3Cl)cc2OC)cc2cnc(N[C@H]3CC[C@H](N)CC3)nc12 [42; Formic Acid]	≤ 5 nM	–
